According to US20240228506A1, “RIPK1 INHIBITORS AND METHODS OF USE” (Merck Sharp & Dohme LLC, priority 2021, published 2024):
pIC50: −log10 of the molar value.

Target: T1, GST-RIPK1 (recombinant GST-RIPK1 kinase domain (residues 1-327)) (Homo sapiens, UniProt Q13546)
T1 construct: recombinant GST-RIPK1 kinase domain (residues 1-327) enzyme; made in house; host or cells: baculovirus-transfected Sf21 insect cells
T1 sequence (Q13546 1-327): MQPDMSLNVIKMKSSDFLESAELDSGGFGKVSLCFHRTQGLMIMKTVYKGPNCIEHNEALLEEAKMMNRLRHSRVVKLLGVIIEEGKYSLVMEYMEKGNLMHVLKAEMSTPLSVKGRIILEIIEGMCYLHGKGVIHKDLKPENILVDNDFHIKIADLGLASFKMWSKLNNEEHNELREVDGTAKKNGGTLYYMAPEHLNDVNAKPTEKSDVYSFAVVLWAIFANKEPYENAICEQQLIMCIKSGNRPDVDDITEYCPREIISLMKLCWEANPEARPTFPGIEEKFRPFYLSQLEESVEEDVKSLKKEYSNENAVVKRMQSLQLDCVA
Experiment: RIPK1-ADP-Glo enzymatic assay
Type: biochemical
Details: 25 nM GST-RIPK1, 300 μM ATP, 3 μM dephosphorylated-MBP; 30 minutes pre-incubation, 150 minutes reaction; ten-point titration
Method in brief: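 Ten-point 1:3 titrations from 100000 nM, 1% DMSO, were preincubated 30 min with 25 nM GST-RIPK1 (1-327) before starting with 300 μM ATP plus 3 μM dephosphorylated MBP; 150 min reaction. ADP-Glo luminescence measured ATP-to-ADP conversion; EC50 by four-parameter sigmoidal regression.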

First: O=C(N1C[C@@H]2C[C@H]1c1cncc(Cl)c1O2)C12CCC(C1)C2 [Compound 2-29, bicyclo[2.1.1]hexan-1-yl((2S,5S)-9-chloro-2,3-dihydro-2,5-methanopyrido[3,4-f][1,4]oxazepin-4(5H)-yl)methanone]
Second: O=C(N1C[C@@H]2C[C@H]1c1cncc(Cl)c1O2)C12CCC(CC1)C2 [Compound 2-31, Bicyclo[2.2.1]heptan-1-yl((2S,5S)-9-chloro-2,3-dihydro-2,5-methanopyrido[3,4-f][1,4]oxazepin-4(5H)-yl)methanone]
The pIC50 of the first is 0.79 log units lower: 6.91 for the first, 7.70 for the second.

Compared with `O=C(N1C[C@@H]2C[C@H]1c1cncc(F)c1O2)C12CCC(C1)C2` [Compound 2-30, bicyclo[2.1.1]hexan-1-yl((2S,5S)-9-fluoro-2,3-dihydro-2,5-methanopyrido[3,4-f][1,4]oxazepin-4(5H)-yl)methanone], `C#Cc1cncc2c1O[C@H]1C[C@@H]2N(C(=O)C23CCC(C(F)(F)F)(CC2)C3)C1` [Compound 2-33, ((2S,5S)-9-ethynyl-2,3-dihydro-2,5-methanopyrido[3,4-f][1,4]oxazepin-4(5H)-yl)(4-(trifluoromethyl)bicyclo [2.2.1]heptan-1-yl)methanone] is 0.61 log units higher in pIC50: 6.81 for the first, 7.42 for the second.

Going from `C#Cc1cncc2c1O[C@H]1C[C@@H]2N(C(=O)C(C)(C)C(F)F)C1` [Compound 2-32, 1-((2S,5S)-9-Ethynyl-2,3-dihydro-2,5-methanopyrido[3,4-f][1,4]oxazepin-4(5H)-yl)-3,3-difluoro-2,2-dimethylpropan-1-one] to `CC(C)(C(=O)N1C[C@@H]2C[C@H]1c1cncc(C#Cc3cncnc3)c1O2)C(F)F` [Compound 2-45, 3,3-difluoro-2,2-dimethyl-1-((2S,5S)-9-(pyrimidin-5-ylethynyl)-2,3-dihydro-2,5-methanopyrido[3,4-f][1,4]oxazepin-4(5H)-yl)propan-1-one], the pIC50 rises from 6.78 to 7.49 (0.71 log units). The second is the more potent here.

Going from `CC(C)(C(=O)N1C[C@@H]2C[C@H]1c1cncc(C#Cc3ccc4nccnc4c3)c1O2)C(F)F` [Compound 2-34, 3,3-Difluoro-2,2-dimethyl-1-((2S,5S)-9-(quinoxalin-6-ylethynyl)-2,3-dihydro-2,5-methanopyrido[3,4-f][1,4]oxazepin-4(5H)-yl)propan-1-one] to `CC(C)(C(=O)N1C[C@@H]2C[C@H]1c1cncc(C#Cc3ccnc(N)c3)c1O2)C(F)F` [Compound 2-39, 1-((2S,5S)-9-((2-aminopyridin-4-yl)ethynyl)-2,3-dihydro-2,5-methanopyrido[3,4-f][1,4]oxazepin-4(5H)-yl)-3,3-difluoro-2,2-dimethylpropan-1-one], the pIC50 falls from 7.82 to 7.62 (0.20 log units). The first is the more potent here.

Compared with `CC(C)(C)C(=O)N1C[C@@H]2C[C@H]1c1cncc(C#Cc3cc(C(F)(F)F)ccn3)c1O2` [Compound 2-35, 2,2-dimethyl-1-((2S,5S)-9-((4-(trifluoromethyl)pyridin-2-yl)ethynyl)-2,3-dihydro-2,5-methanopyrido[3,4-f][1,4]oxazepin-4(5H)-yl)propan-1-one], `CC(C)(C)C(=O)N1C[C@@H]2C[C@H]1c1cncc(C#Cc3ccc(OC(F)(F)F)cc3)c1O2` [Compound 2-37, 2,2-dimethyl-1-((2S,5S)-9-((4-(trifluoromethoxy)phenyl)ethynyl)-2,3-dihydro-2,5-methanopyrido[3,4-f][1,4]oxazepin-4(5H)-yl)propan-1-one] is 0.58 log units higher in pIC50: 6.75 for the first, 7.33 for the second. The second is the more potent here.

First: CC(C)(C)C(=O)N1C[C@@H]2C[C@H]1c1cncc(C#CC(O)(c3ccccc3)C(F)(F)F)c1O2 (stereo partly drawn) [Compound 2-36, 2,2-dimethyl-1-((2S,5S)-9-(4,4,4-trifluoro-3-hydroxy-3-phenylbut-1-yn-1-yl)-2,3-dihydro-2,5-methanopyrido[3,4-f][1,4]oxazepin-4(5H)-yl)propan-1-one]
Second: CC(C)(C(=O)N1C[C@@H]2C[C@H]1c1cncc(C#Cc3ccccc3)c1O2)C(F)F [Compound 2-47, 3,3-Difluoro-2,2-dimethyl-1-((2S,5S)-9-(phenylethynyl)-2,3-dihydro-2,5-methanopyrido[3,4-f][1,4]oxazepin-4(5H)-yl)propan-1-one]
The pIC50 of the first is 0.90 log units lower: 6.28 for the first, 7.18 for the second. The second is the more potent here.

Going from `COc1ccc2cc(C#Cc3cncc4c3O[C@H]3C[C@@H]4N(C(=O)C(C)(C)C)C3)ccc2c1` [Compound 2-38, 1-((2S,5S)-9-((6-methoxynaphthalen-2-yl)ethynyl)-2,3-dihydro-2,5-methanopyrido[3,4-f][1,4]oxazepin-4(5H)-yl)-2,2-dimethylpropan-1-one] to `CC(C)(C(=O)N1C[C@@H]2C[C@H]1c1cncc(C#Cc3ccc(F)cc3)c1O2)C(F)F` [Compound 2-41, 3,3-difluoro-1-((2S,5S)-9-((4-fluorophenyl)ethynyl)-2,3-dihydro-2,5-methanopyrido[3,4-f][1,4]oxazepin-4(5H)-yl)-2,2-dimethylpropan-1-one], the pIC50 falls from 7.60 to 7.25 (0.35 log units).

`CC(C)(C(=O)N1C[C@@H]2C[C@H]1c1cncc(C#CCn3nnc4ccccc43)c1O2)C(F)F` [Compound 2-40, 1-((2S,5S)-9-(3-(1H-benzo[d][1,2,3]triazol-1-yl)prop-1-yn-1-yl)-2,3-dihydro-2,5-methanopyrido[3,4-f][1,4]oxazepin-4(5H)-yl)-3,3-difluoro-2,2-dimethylpropan-1-one] and `CC(C)(C(=O)N1C[C@@H]2C[C@H]1c1cncc(C#CCc3ccccc3)c1O2)C(F)F` [Compound 2-46, 3,3-difluoro-2,2-dimethyl-1-((2S,5S)-9-(3-phenylprop-1-yn-1-yl)-2,3-dihydro-2,5-methanopyrido[3,4-f][1,4]oxazepin-4(5H)-yl)propan-1-one] are within 0.2 log units of each other in pIC50: 6.85 for the first, 7.01 for the second.

`CC(C)(C(=O)N1C[C@@H]2C[C@H]1c1cncc(C#Cc3cccc(F)c3)c1O2)C(F)F` [Compound 2-42, 3,3-difluoro-1-((2S,5S)-9-((3-fluorophenyl)ethynyl)-2,3-dihydro-2,5-methanopyrido[3,4-f][1,4]oxazepin-4(5H)-yl)-2,2-dimethylpropan-1-one] and `CC(C)(C(=O)N1C[C@@H]2C[C@H]1c1cncc(C#Cc3ccc(F)cc3F)c1O2)C(F)F` [Compound 2-43, 1-((2S,5S)-9-((2,4-difluorophenyl)ethynyl)-2,3-dihydro-2,5-methanopyrido[3,4-f][1,4]oxazepin-4(5H)-yl)-3,3-difluoro-2,2-dimethylpropan-1-one] are within 0.2 log units of each other in pIC50: 7.38 for the first, 7.32 for the second.

`CC(C)(C(=O)N1C[C@@H]2C[C@H]1c1cncc(C#Cc3ccccc3F)c1O2)C(F)F` [Compound 2-44, 3,3-difluoro-1-((2S,5S)-9-((2-fluorophenyl)ethynyl)-2,3-dihydro-2,5-methanopyrido[3,4-f][1,4]oxazepin-4(5H)-yl)-2,2-dimethylpropan-1-one] and `CC(C)(C(=O)N1C[C@@H]2C[C@H]1c1cncc(C#Cc3cccnc3)c1O2)C(F)F` [Compound 2-48, 3,3-difluoro-2,2-dimethyl-1-((2S,5S)-9-(pyridin-3-ylethynyl)-2,3-dihydro-2,5-methanopyrido[3,4-f][1,4]oxazepin-4(5H)-yl)propan-1-one] are within 0.2 log units of each other in pIC50: 7.47 for the first, 7.44 for the second.

Work on `CC(C)(C(=O)N1C[C@@H]2C[C@H]1c1cncc(C#Cc3cnccn3)c1O2)C(F)F` [Compound 2-49, 3,3-difluoro-2,2-dimethyl-1-((2S,5S)-9-(pyrazin-2-ylethynyl)-2,3-dihydro-2,5-methanopyrido[3,4-f][1,4]oxazepin-4(5H)-yl)propan-1-one] yielded a pIC50 of 7.08.
